The source made the active and inactive calls.
Experiments:
Cytochrome P450 2C9 = Cytochrome P450 2C9 (Homo sapiens, UniProt P11712); conditions: Potency
Nonstructural protein 1 = Nonstructural protein 1 (Influenza A virus, UniProt Q194T2); type: functional, Influenza A virus (A/California/07/2009(H1N1))
[1] = target: T1, Oxysterols receptor LXR-beta (Homo sapiens, UniProt P55055); type: functional, cell-based;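 further: agonist activity at LXR measured by a cell-based luminescence readout across a dose range, run as a counterscreen for daf-12 agonists; HEK293 cells with Gal4-LXR fusion and GAL4-driven luciferase reporter; potency for activation of Gal4-LXR reporter so compounds are agonists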
T1 sequence (P55055 whole entry): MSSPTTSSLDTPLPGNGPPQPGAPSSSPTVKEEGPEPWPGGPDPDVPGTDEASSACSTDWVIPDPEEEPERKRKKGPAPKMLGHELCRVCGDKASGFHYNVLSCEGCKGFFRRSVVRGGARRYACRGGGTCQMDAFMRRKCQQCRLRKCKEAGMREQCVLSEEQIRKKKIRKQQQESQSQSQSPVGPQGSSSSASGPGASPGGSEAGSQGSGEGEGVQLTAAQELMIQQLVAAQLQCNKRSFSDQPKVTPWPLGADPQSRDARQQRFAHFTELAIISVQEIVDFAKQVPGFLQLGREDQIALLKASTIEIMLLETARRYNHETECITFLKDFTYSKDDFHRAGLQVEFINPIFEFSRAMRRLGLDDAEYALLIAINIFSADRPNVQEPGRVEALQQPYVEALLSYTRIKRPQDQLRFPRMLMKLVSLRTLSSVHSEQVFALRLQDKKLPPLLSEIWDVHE

fMet-Leu-Phe receptor = target: T2, fMet-Leu-Phe receptor (Homo sapiens, UniProt P21462); assay: FPR ligands, dose response (AID 519); type: functional
T2 sequence (P21462 whole entry): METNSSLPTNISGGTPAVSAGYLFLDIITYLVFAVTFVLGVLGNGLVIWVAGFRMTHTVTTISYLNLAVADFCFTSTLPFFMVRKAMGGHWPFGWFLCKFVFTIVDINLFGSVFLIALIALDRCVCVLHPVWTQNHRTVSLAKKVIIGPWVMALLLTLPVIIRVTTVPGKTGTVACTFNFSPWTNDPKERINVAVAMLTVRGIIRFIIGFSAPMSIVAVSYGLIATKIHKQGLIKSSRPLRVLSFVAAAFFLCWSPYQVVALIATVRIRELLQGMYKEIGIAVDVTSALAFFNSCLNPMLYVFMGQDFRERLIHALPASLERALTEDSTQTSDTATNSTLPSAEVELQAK

[2] = target: T3, Neuropeptides B/W receptor type 1 (Homo sapiens, UniProt P48145); assay: Fluorescence-based dose response cell-based high throughput screening assay to identify antagonists of the G-protein coupled receptor 7 (GPR7). [Related pubchem assays: 1952 (Screening assay (GPR7 antagonists).), 1880 (Summary AID.)]; type: functional
T3 sequence (P48145 whole entry): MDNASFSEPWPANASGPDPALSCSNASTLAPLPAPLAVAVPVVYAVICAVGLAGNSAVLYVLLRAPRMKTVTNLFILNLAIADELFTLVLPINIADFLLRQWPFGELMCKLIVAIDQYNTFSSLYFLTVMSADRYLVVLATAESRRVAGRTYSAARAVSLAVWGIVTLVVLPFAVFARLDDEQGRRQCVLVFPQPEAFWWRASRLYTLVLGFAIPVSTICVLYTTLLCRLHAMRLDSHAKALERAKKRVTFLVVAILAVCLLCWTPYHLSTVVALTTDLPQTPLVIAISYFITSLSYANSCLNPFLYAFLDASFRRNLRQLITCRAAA

[3] = target: Melanin-concentrating hormone receptor 1 (Homo sapiens, UniProt Q99705); assay: Fluorescence-based counterscreen for antagonists of the G-protein coupled receptor 7 (GPR7): cell-based high throughput dose response assay to identify antagonists of the melanin-concentrating hormone receptor 1 (MCHR1).; type: functional
Sequence of Melanin-concentrating hormone receptor 1 (Q99705 whole entry): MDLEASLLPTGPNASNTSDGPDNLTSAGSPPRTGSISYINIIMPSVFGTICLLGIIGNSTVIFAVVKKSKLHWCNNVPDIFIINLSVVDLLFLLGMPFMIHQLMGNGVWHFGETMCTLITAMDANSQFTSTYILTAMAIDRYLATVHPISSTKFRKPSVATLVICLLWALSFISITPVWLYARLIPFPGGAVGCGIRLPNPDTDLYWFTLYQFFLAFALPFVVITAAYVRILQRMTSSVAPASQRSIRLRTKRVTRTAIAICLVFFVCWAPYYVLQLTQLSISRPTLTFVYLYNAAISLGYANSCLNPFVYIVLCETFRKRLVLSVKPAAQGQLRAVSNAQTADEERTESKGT

[4] = HEp-2 cell cytotoxicity, dose response, cytotoxicity control for RSV inhibitor project, HTS (AID 2410); type: functional; conditions: human respiratory syncytial virus
[5] = target: T4, Rac GTPase-activating protein 1 (Homo sapiens, UniProt Q9H0H5); assay: MgcRacGAP GTPase-activating activity inhibitors, confirmation, biochemical, ADP Hunter fluorescence, primary and confirmatory (AID 624330); type: functional
T4 sequence (Q9H0H5 whole entry): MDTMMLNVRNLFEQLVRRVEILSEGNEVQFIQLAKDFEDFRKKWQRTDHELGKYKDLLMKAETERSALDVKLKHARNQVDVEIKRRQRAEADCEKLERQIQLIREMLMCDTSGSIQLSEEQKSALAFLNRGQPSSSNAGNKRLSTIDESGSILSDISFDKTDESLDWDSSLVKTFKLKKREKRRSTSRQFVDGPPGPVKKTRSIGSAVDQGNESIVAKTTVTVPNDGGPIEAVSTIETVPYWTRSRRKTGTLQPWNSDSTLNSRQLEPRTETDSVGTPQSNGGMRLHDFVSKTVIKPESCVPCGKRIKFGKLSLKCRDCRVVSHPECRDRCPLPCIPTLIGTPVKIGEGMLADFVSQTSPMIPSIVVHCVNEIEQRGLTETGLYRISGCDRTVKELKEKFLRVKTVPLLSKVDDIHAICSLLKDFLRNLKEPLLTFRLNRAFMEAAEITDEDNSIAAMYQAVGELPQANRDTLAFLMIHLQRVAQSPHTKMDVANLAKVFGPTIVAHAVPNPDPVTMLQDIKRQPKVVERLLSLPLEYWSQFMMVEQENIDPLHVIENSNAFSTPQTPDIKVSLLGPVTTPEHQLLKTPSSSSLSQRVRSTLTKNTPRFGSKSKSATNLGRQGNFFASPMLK

[6] = target: Luciferin 4-monooxygenase (Photinus pyralis, UniProt P08659); assay: firefly luciferase enzyme inhibitors, dose response, biochemical, luminescence (AID 1891)
Sequence of Luciferin 4-monooxygenase (P08659 whole entry): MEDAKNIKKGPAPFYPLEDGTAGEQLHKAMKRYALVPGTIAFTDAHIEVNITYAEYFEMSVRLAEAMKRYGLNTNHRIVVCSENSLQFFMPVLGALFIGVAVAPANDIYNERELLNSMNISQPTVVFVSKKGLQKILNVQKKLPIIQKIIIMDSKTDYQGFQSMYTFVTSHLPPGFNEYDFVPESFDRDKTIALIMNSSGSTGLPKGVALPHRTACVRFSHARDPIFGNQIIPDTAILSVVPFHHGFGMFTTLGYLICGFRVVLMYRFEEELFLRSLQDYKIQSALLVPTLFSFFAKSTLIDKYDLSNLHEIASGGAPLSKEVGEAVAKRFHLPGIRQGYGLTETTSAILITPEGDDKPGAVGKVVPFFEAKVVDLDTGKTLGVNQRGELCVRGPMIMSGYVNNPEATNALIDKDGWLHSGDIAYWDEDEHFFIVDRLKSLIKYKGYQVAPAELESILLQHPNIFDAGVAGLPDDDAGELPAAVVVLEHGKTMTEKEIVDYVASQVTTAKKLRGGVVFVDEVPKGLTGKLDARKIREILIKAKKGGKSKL

[7] = Luminescence Cell-Based Dose Confirmation HTS to Identify Inhibitors of Platelet Dense Granule Release. [Related pubchem assays: 1663 (Primary HTS), 1678 (Summary of Project)]; type: functional
Leucine aminopeptidase = target: T5, Leucine aminopeptidase (Plasmodium falciparum 3D7, UniProt Q8IL11); assay: P. falciparum M17LAP inhibitors, primary screen, biochemical, fluorogenic H-Leu-NHMec substrate, 1536-well (AID 1619); type: functional
T5 sequence (Q8IL11 whole entry): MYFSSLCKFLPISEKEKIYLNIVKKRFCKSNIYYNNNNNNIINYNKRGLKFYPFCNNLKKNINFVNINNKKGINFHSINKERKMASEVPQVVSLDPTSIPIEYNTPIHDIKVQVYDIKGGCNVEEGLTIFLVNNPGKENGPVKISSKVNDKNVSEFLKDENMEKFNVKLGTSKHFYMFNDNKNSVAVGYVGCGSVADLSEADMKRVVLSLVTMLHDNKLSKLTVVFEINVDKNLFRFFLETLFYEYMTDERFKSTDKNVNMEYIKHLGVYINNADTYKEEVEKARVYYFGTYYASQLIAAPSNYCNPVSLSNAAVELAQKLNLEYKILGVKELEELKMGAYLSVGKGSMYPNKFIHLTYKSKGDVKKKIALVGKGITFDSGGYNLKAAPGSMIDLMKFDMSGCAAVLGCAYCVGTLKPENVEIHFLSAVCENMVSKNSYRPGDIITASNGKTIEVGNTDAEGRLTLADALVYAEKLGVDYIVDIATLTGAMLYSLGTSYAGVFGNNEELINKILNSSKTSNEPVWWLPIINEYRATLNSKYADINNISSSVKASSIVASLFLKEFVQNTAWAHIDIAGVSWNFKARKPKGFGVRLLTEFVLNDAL

Protein Tat = target: T6, Protein Tat (Human immunodeficiency virus type 1 group M subtype B (isolate HXB2)(HIV-1), UniProt P04608); type: functional;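 further: tat binding to TAR RNA read out by fluorescence polarization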
T6 sequence (P04608 whole entry): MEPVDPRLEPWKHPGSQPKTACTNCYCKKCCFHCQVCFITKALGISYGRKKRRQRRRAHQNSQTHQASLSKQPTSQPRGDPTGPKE

[8] = THP-1 cell cytotoxicity, dose response, cytotoxicity control for Vif-APOBEC3G degradation inhibitor project, THP-1 cells (AID 1117359); type: functional; conditions: Human immunodeficiency virus 1, THP-1
[9] = A375 melanoma cell viability loss, dose response, counter-screen for MITF inhibitor project, CellTiter-Glo luminescence, dry powder, set 4 (AID 624364); type: functional, cell-based; conditions: A-375;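 further: A375 melanoma cells are MITF independent so this is a counter screen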
[10] = A375 melanoma cell cytotoxicity, dose response, counter-screen for MITF inhibitor project, CellTiter-Glo luminescence, dry powder, set 2 (AID 624489); type: functional, cell-based; conditions: A-375;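 further: actives are compounds lowering A375 viability meaning general cytotoxicity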
[11] = P. falciparum Dd2 growth inhibitors, dose response, SYBR Green, cherry-picked samples (AID 1159567); type: functional, cell-based
[12] = HepG2 cell cytotoxicity, dose response, cytotoxicity control, cherry-picked samples (AID 1159577); type: functional, cell-based
[13] = P. falciparum 3D7-ScDHODH growth inhibitors, dose response, SYBR Green, dry powder samples (AID 1159570); type: functional, cell-based;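 further: parasite growth measured after 72 hours of compound exposure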
[14] = P. falciparum Dd2 growth inhibitors, dose response, SYBR Green, dry powder samples (AID 1159566); type: functional, cell-based;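 further: potency for growth inhibition with lower SYBR green DNA signal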
[15] = P. falciparum ATP4 D1247Y mutant growth inhibitors, dose response, NITD609-resistant line, SYBR Green, dry powder (AID 1159571); type: functional, cell-based;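 further: parasites synchronized at ring stage by sorbitol before testing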
[16] = P. falciparum Dd2 growth inhibitors, dose response, SYBR Green, dry powder samples, set 9 (AID 1159568); type: functional, cell-based

Sequence of Cytochrome P450 2C9 (P11712 whole entry): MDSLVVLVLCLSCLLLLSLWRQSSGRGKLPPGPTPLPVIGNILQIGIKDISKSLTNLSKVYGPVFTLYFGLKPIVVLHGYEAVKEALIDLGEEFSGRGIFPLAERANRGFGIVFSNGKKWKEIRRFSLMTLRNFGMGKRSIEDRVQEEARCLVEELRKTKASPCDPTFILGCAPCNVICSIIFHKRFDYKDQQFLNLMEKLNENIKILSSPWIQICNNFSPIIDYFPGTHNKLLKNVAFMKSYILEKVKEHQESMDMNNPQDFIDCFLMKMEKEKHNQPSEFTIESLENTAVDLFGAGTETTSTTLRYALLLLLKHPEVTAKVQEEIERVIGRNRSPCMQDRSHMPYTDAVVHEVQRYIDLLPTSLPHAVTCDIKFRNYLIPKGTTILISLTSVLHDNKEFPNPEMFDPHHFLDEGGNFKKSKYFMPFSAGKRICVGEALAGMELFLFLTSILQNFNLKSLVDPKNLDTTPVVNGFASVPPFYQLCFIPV
Sequence of Nonstructural protein 1 (Q194T2 whole entry, the tested form may be a part): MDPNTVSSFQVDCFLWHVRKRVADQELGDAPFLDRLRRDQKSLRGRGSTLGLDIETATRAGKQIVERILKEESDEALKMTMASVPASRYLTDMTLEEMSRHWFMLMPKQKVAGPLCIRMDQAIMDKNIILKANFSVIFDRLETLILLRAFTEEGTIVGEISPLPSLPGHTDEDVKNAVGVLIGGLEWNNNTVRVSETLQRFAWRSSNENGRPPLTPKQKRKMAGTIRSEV

SMILES: CCCCC#CC1C=CC(Oc2cc(OC)c(OC)c(OC)c2)C(COC(=O)OCC)O1 (stereo not given)
- AC50 (Cytochrome P450 2C9): 6.31 µM (inconclusive)

SMILES: c1ccc(CSc2ccc(-c3ccccn3)nn2)nc1
- IC50 (Nonstructural protein 1): 4.94 µM (active)
- EC50 [1]: > 67.5 µM (inactive)

SMILES: Cc1ccc(C2C(C(=O)c3cnn(-c4ccccc4)c3C)=C(O)C(=O)N2CCN2CCOCC2)o1 (stereo not given)
- Ki (fMet-Leu-Phe receptor): 23.2 µM (inactive)

SMILES: CN(c1ccccc1)S(=O)(=O)c1ccc(C(=O)NCCc2ccccc2)cc1
- IC50 [2]: > 14.6 µM (not active)
- IC50 [3]: 16 µM (not active)

SMILES: COc1ccc(NS(=O)(=O)c2cccc(C(=O)NCC(c3ccc(F)cc3)N3CCOCC3)c2)cc1 (stereo not given)
- IC50 [2]: > 43.8 µM (not active)
- IC50 [3]: 23.6 µM (not active)

SMILES: c1ccc(CCn2c3ccccc3c3nnc(SCc4ccc5nonc5c4)nc32)cc1
- CC50 [4]: 22.3 µM (active)
- IC50 (cells): 28.3 µM (active)

SMILES: CC(=O)OCCNc1cc(N2CCN(C)CC2)c2noc3c2c1C(=O)c1ccccc1-3
- IC50 (Nonstructural protein 1): 24.1 µM (active)
- IC50 [5]: 117 µM (active)
- Ki (fMet-Leu-Phe receptor): > 66.7 µM (inactive)

SMILES: O=S(=O)(Nc1cccc(-c2ccc(N3CCOCC3)nn2)c1)c1cc(Cl)ccc1Cl
- CC50 [4]: 23.5 µM (active)
- IC50 (cells): 8.9 µM (active)

SMILES: O=C1CCCN1c1ccc(C(=O)N(Cc2nnc(-c3ccccc3Cl)o2)C2CC2)cc1
- CC50 [4]: 48.5 µM (active)
- IC50 (cells): 18.8 µM (active)

SMILES: CC(C)C[C@@H](CC(=O)N[C@@H](CCCN)CC(=O)N[C@@H]1CCCC[C@H]1C(=O)N[C@H](CC(=O)N[C@@H](CCC(=O)O)CC(=O)O)Cc1c[nH]c2ccccc12)NC(=O)[C@@H]1CCCC[C@H]1N
- AC50 (Cytochrome P450 2C9): 39.8 µM (inconclusive)

SMILES: CSc1ncnc2c1ncn2CC(=O)[C@H]1CC[C@H]2[C@H]3CCC4=CC(=O)CC[C@@]4(C)[C@@H]3CC[C@@]12C
- AC50 (Cytochrome P450 2C9): 3.16 µM (inconclusive)

SMILES: O=C(Cn1cnc2c(cnn2-c2ccc(F)cc2)c1=O)OCc1ccccc1
- EC50 [6]: > 112 µM (not active)
- EC50 [7]: > 112 µM (not active)
- Ki (fMet-Leu-Phe receptor): > 66.7 µM (inactive)

SMILES: COc1ccc(CNC(=O)Cc2c(C(=O)O)[nH]c3ccccc23)cc1
- IC50 (Leucine aminopeptidase): 35.6 µM (active)

SMILES: C[C@@H]1CN([C@@H](C)CO)C(=O)c2cc(NC(=O)Nc3ccccc3)ccc2O[C@@H](C)CCCCO[C@H]1CN(C)C(=O)Nc1ccc(C(F)(F)F)cc1
- IC50 (Protein Tat): > 100 µM (active)
- CC50 [8]: 36.3 µM (active)

SMILES: O=C(NC1=C(N2CCSCC2)C(=O)c2ccccc2C1=O)c1ccc(Br)cc1
- AC50 [9]: > 70 µM (inactive)
- AC50 [10]: 49.9 µM (active)

SMILES: O=C1C(NS(=O)(=O)c2ccc(Br)cc2)=C(c2ccccc2)C(=O)c2ccccc21
- AC50 [9]: > 70 µM (inactive)
- AC50 [10]: > 70 µM (inactive)

SMILES: C=CCNC1=C(Nc2ccccc2)C(=O)c2ccccc2C1=O
- AC50 [9]: > 70 µM (inactive)
- AC50 [10]: > 70 µM (inactive)

SMILES: Cc1cccc(N/N=C(\C#N)S(=O)(=O)C(C)(C)C)c1
- IC50 (Leucine aminopeptidase): 19 µM (active)

SMILES: C[C@@H]1CN([C@@H](C)CO)C(=O)c2c(c3ccccc3n2C)-c2ccccc2CO[C@@H]1CN(C)Cc1ccccc1C(F)(F)F
- AC50 [11]: 1.47 µM (active)
- AC50 [12]: 8.34 µM (active)

SMILES: N#C[C@@H]1[C@H](c2ccccc2C2=CCCCC2)[C@@H](CO)N1C(=O)c1cccc(F)c1
- AC50 [13]: 2.12 µM (active)
- AC50 [11]: 2.74 µM (active)
- AC50 [14]: 1.93 µM (active)
- AC50 [15]: 7.9 µM (active)

SMILES: C/C=C/c1ccc([C@H]2[C@@H](CO)N(CC3CCCCC3)[C@H]2CNC(C)C)cc1
- AC50 [16]: 5.66 µM (active)

SMILES: COc1ccc(S(=O)(=O)Nc2ccc3c(c2)C(=O)N([C@H](C)CO)C[C@@H](C)[C@@H](CN(C)S(=O)(=O)c2ccc(Cl)cc2)OCCCC[C@@H](C)O3)cc1
- AC50 [16]: 0.742 µM (active)

Source: ChEMBL document CHEMBL1201862, “PubChem BioAssay data set” (2004)
